Reference: PubChem BioAssay AID1347039 (Raney Lab, University of Arkansas for Medical Sciences …, 2019)
Records with an inconclusive call do not appear. Calls of active or inactive are those of the source.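 The calls were made as follows: active = remaining helicase activity under 10% at 30 micromolar; inconclusive = remaining helicase activity between 10% and 50%; inactive = remaining helicase activity over 50%.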

Tested on: Hepatitis C virus NS3 helicase
Experiment: HCV NS3 helicase DNA unwinding inhibitors, primary screen, biochemical, fluorescence, FAM-quenched DNA substrate, full-length NS3 (AID 1347039)
Conditions: recombinant NS3 DNA unwinding, FAM fluorescence rate; at 30 µM; hits give low values

Structure (SMILES) | remaining helicase activity
COc1ccc(C(=O)n2cc(C=C3C(=O)NC(=S)NC3=O)c3cc(Br)ccc32)cc1 | 61.9% (inactive)
O=C1NC(=S)NC(=O)C1=Cc1cn(C(=O)c2ccc(F)cc2)c2ccccc12 | 51.1% (inactive)
COc1ccc(C(=O)n2cc(C=C3C(=O)NC(=S)NC3=O)c3ccccc32)cc1 | 54.6% (inactive)
COc1ccc2c(c1)c(C=C1C(=O)NC(=S)NC1=O)cn2C(=O)c1cccc2ccccc12 | 0%
O=C1NC(=S)NC(=O)C1=Cc1cn(C(=O)c2ccccc2)c2ccccc12 | 56.3% (inactive)
O=C1NC(=S)NC(=O)C1=Cc1cn(C(=O)c2ccccc2Br)c2ccccc12 | 63.5% (inactive)
O=C1NC(=S)NC(=O)C1=Cc1cn(C(=O)c2ccc3ccccc3c2)c2ccc(Cl)cc12 | 73.3% (inactive)
O=C1NC(=S)NC(=O)C1=Cc1cn(C(=O)c2ccccc2Br)c2ccc(Br)cc12 | 53.2% (inactive)
COc1ccc(C(=O)n2cc(C=C3C(=O)NC(=S)NC3=O)c3cc(Cl)ccc32)cc1 | 53.2% (inactive)
COc1ccc2c(c1)c(C=C1C(=O)NC(=S)NC1=O)cn2C(=O)c1ccccc1 | 79.2% (inactive)
O=C1NC(=S)NC(=O)C1=Cc1cn(C(=O)c2ccccc2)c2ccc(Cl)cc12 | 73.2% (inactive)
COc1ccc(C(=O)n2cc(C=C3C(=O)NC(=S)NC3=O)c3cc(OC)ccc32)cc1 | 55.2% (inactive)
O=C1NC(=S)NC(=O)C1=Cc1cn(C(=O)c2cccc3ccccc23)c2ccc(Cl)cc12 | 33.4% (inactive)
O=C1NC(=S)NC(=O)C1=Cc1cn(C(=O)c2ccc3ccccc3c2)c2ccccc12 | 0%
O=C1NC(=S)NC(=O)C1=Cc1cn(C(=O)c2cccc3ccccc23)c2ccccc12 | 22.3% (inactive)
COc1ccc2c(c1)c(C=C1C(=O)NC(=S)NC1=O)cn2C(=O)c1ccc2ccccc2c1 | 6.3%
O=C1NC(=S)NC(=O)C1=Cc1cn(C(=O)c2ccccc2Br)c2ccc(Cl)cc12 | 83.8% (inactive)
